In patent US11986471B2, “Compounds and methods of use” (Tango Therapeutics, Inc., priority 2018, dated 2024):

Legend:
PRMT5 [1] = target: T1, PRMT5 (Homo sapiens, UniProt O14744); assay: PRMT5 IC50 assay with no cofactor; format: biochemical; details: read-out: No Co-factor IC50
T1 construct: purchased Viva (custom protein)
Summary of the method: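 IC50 against PRMT5 determined with SAM as cofactor, with no cofactor, and with MTA as cofactor. Ki derived as IC50/1.5 for the SAM assay and IC50/13.5 for the MTA assay; SAM Ki to MTA Ki ratio also reported.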

HAP1 MTAP-deleted = assay: SDMA in-cell western assay, HAP1 MTAP-deleted cell line; format: cell-based; details: for IC50: Homo sapiens, HAP1 MTAP-deleted cell line; for MTAP Intact/Deleted Ratio: IC50 ratio HAP1 MTAP-intact / HAP1 MTAP-deleted
Summary of the method: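 In-cell western for SDMA marks; MTAP-deleted (null) HAP1 background; values given as IC50.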

HAP1 MTAP-intact = assay: SDMA in-cell western assay, HAP1 MTAP-intact cell line; format: cell-based; details: Homo sapiens
Summary of the method: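 Using an MTAP-isogenic HAP1 cell pair, inhibition of SDMA formation is read by in-cell western and expressed as IC50. MTAP-selectivity is assigned where the ratio between lines reaches 3 fold or greater.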

PRMT5 [2] = target: T1, PRMT5; assay: PRMT5 IC50 assay in the presence of SAM as cofactor; format: biochemical
Summary of the method: (§1)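 MTA-dependent versus SAM-dependent inhibition of human PRMT5 was assessed by IC50; conversion factors of 13.5 and 1.5 gave the corresponding Ki.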

PRMT5 [3] = target: T1, PRMT5; assay: PRMT5 IC50 assay in the presence of MTA as cofactor; format: biochemical; details: for IC50: PRMT5, MTA as cofactor; for SAM/MTA Ratio: ratio between Ki in the presence of SAM and Ki in the presence of MTA
Summary of the method: as §1

T1 sequence (O14744 whole entry): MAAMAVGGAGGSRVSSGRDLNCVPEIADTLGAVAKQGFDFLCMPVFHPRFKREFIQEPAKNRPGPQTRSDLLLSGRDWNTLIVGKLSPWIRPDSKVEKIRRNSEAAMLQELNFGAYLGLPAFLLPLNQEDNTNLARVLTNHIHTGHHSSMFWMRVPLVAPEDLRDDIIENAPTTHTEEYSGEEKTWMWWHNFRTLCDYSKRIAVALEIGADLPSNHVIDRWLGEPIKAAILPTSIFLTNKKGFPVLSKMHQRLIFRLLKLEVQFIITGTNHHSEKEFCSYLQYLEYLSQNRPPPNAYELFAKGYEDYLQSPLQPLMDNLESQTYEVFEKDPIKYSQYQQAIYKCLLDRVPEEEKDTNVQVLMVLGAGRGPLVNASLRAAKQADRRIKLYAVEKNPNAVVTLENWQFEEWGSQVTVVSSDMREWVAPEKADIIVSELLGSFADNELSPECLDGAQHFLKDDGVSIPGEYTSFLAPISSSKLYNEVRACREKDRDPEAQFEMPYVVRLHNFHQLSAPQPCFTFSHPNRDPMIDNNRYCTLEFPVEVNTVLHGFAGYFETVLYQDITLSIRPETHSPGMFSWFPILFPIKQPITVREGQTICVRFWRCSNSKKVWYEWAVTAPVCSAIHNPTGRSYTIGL
T1 sequence (Q9BQA1 whole entry partner): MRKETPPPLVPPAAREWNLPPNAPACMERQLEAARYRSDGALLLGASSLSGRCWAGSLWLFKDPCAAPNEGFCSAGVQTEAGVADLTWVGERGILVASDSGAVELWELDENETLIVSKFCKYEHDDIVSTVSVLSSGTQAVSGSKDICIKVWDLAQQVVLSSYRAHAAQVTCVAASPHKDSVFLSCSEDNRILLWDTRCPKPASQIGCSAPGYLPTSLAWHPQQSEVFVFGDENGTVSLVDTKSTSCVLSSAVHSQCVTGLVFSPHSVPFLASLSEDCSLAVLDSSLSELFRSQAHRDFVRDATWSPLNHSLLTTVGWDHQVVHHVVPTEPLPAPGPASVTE

Structure (SMILES)	IC50 (PRMT5 [1])	IC50 (HAP1 MTAP-deleted)	IC50 (HAP1 MTAP-intact)	IC50 (PRMT5 [2])	IC50 (PRMT5 [3])	MTAP Intact/Deleted Ratio (HAP1 MTAP-deleted)	SAM/MTA Ratio (PRMT5 [3])
CCCN(C)c1nc(NC2COC2)cc(C(=O)NC[C@H](O)CN2CCc3c(ccc(OCc4cnco4)c3Cl)C2)n1 [Compound 312, (S)—N-(3-(5-chloro-6-(oxazol-5-ylmethoxy)-3N-dihydroisoquinolin-2(1H)-yl)-2-hydroxypropyl)-2-(methyl(propyl)amino)-6-(oxetan-3-ylamino)pyrimidine-4-carboxamide]	500 to 5000 nM	1000 to 10000 nM	≥ 10000 nM	50 to 500 nM	50 to 500 nM	B* (an IC50 ratio greater than or equal to 3 fold but lower than 10 fold between the IC50 in the HAP1 MTAP-intact cell line and the HAP1 MTAP-deleted cell line)	A (a Ki ratio greater than or equal to 10 fold between the Ki in the presence of SAM and the Ki in the presence of MTA)
CC(C)C(=O)N1CCN(c2nc(NC3COC3)cc(C(=O)NC[C@H](O)CN3CCc4cc(OCc5cnco5)ccc4C3)n2)CC1 [Compound 313]	500 to 5000 nM	1000 to 10000 nM	1000 to 10000 nM	50 to 500 nM	50 to 500 nM	C* (an IC50 ratio of less than 3 fold between the IC50 in the HAP1 MTAP-intact cell line and the HAP1 MTAP-deleted cell line)	A (a Ki ratio greater than or equal to 10 fold between the Ki in the presence of SAM and the Ki in the presence of MTA)
COCCN(C)c1nc(NC2COC2)cc(C(=O)NC[C@H](O)CN2CCc3c(ccc(OCc4cnco4)c3Cl)C2)n1 [Compound 314]	500 to 5000 nM	1000 to 10000 nM	≥ 10000 nM	50 to 500 nM	50 to 500 nM	C* (an IC50 ratio of less than 3 fold between the IC50 in the HAP1 MTAP-intact cell line and the HAP1 MTAP-deleted cell line)	A (a Ki ratio greater than or equal to 10 fold between the Ki in the presence of SAM and the Ki in the presence of MTA)
CN(C)CCOc1cc(C(=O)NC[C@H](O)CN2CCc3cc(OCc4cnco4)ccc3C2)cc(NC2CCC2)n1 [Compound 315, (S)-2-(cyclobutylamino)-6-(2-(dimethylamino)ethoxy)-N-(2-hydroxy-3-(6-(oxazol-5-ylmethoxy)-3,4-dihydroisoquinolin-2(1H)-yl)propyl)isonicotinamide]	500 to 5000 nM	< 1000 nM	1000 to 10000 nM	50 to 500 nM	< 50 nM	C* (an IC50 ratio of less than 3 fold between the IC50 in the HAP1 MTAP-intact cell line and the HAP1 MTAP-deleted cell line)	A (a Ki ratio greater than or equal to 10 fold between the Ki in the presence of SAM and the Ki in the presence of MTA)
O=C(NC[C@H](O)CN1CCc2c(ccc(OCc3cnco3)c2Cl)C1)c1ccnc(NC2CCC(F)(F)C2)c1 (stereo partly drawn) [Compound 316, N—((S)-3-(5-chloro-6-(oxazol-5-ylmethoxy)-3,4-dihydroisoquinolin-2(1H)-yl)-2-hydroxypropyl)-2-((3,3-difluorocyclopentyl)amino)isonicotinamide]	≥ 5000 nM	≥ 10000 nM	≥ 10000 nM	50 to 500 nM	50 to 500 nM	C* (an IC50 ratio of less than 3 fold between the IC50 in the HAP1 MTAP-intact cell line and the HAP1 MTAP-deleted cell line)	A (a Ki ratio greater than or equal to 10 fold between the Ki in the presence of SAM and the Ki in the presence of MTA)
O=C(NC[C@H](O)CN1CCc2c(ccc(OCc3cnco3)c2Cl)C1)c1ccnc(NC2CC(C(F)F)C2)c1 (stereo partly drawn) [Compound 317, (S)—N-(3-(5-chloro-6-(oxazol-5-ylmethoxy)-3,4-dihydroisoquinolin-2(1H)-yl)-2-hydroxypropyl)-2-((3-(difluoromethyl)cyclobutyl)amino)isonicotinamide]	≥ 5000 nM	≥ 10000 nM	≥ 10000 nM	500 to 5000 nM	50 to 500 nM	C* (an IC50 ratio of less than 3 fold between the IC50 in the HAP1 MTAP-intact cell line and the HAP1 MTAP-deleted cell line)	A (a Ki ratio greater than or equal to 10 fold between the Ki in the presence of SAM and the Ki in the presence of MTA)
CCC(=O)N1CCN(c2nc(NC3COC3)cc(C(=O)NC[C@H](O)CN3CCc4c(ccc(OCc5cnco5)c4Cl)C3)n2)CC1 [Compound 318, (S)—N-(3-(5-chloro-6-(oxazol-5-ylmethoxy)-3N-dihydroisoquinolin-2(1H)-yl)-2-hydroxypropyl)-6-(oxetan-3-ylamino)-2-(4-propionylpiperazin-1-yl)pyrimidine-4-carboxamide]	500 to 5000 nM	1000 to 10000 nM	≥ 10000 nM	50 to 500 nM	50 to 500 nM	C* (an IC50 ratio of less than 3 fold between the IC50 in the HAP1 MTAP-intact cell line and the HAP1 MTAP-deleted cell line)	A (a Ki ratio greater than or equal to 10 fold between the Ki in the presence of SAM and the Ki in the presence of MTA)

The next lines start with results.

IC50 (PRMT5 [1])	IC50 (HAP1 MTAP-deleted)	IC50 (HAP1 MTAP-intact)	IC50 (PRMT5 [2])	IC50 (PRMT5 [3])	Structure (SMILES)	MTAP Intact/Deleted Ratio (HAP1 MTAP-deleted)	SAM/MTA Ratio (PRMT5 [3])
500 to 5000 nM	≥ 10000 nM	≥ 10000 nM	50 to 500 nM	50 to 500 nM	CC(C)(C)N1CCN(c2cc(C(=O)NC[C@H](O)CN3CCc4c(ccc(OCc5cnco5)c4Cl)C3)cc(NC3CCC3)n2)CC1 [Compound 319, (S)-2-(4-(tert-butyl)piperazin-1-yl)-N-(3-(5-chloro-6-(oxazol-5-ylmethoxy)-3N-dihydroisoquinolin-2(1H)-yl)-2-hydroxypropyl)-6-(cyclobutylamino)isonicotinamide]	C* (an IC50 ratio of less than 3 fold between the IC50 in the HAP1 MTAP-intact cell line and the HAP1 MTAP-deleted cell line)	A (a Ki ratio greater than or equal to 10 fold between the Ki in the presence of SAM and the Ki in the presence of MTA)
500 to 5000 nM	1000 to 10000 nM	1000 to 10000 nM	500 to 5000 nM	500 to 5000 nM	O=C(NC[C@H](O)CN1CCc2cc(OCc3cnco3)ccc2C1)c1cc(NC2CCC2)nc(N2CCCCC2)c1 [Compound 320, (S)-2-(cyclobutylamino)-N-(2-hydroxy-3-(6-(oxazol-5-ylmethoxy)-3,4-dihydroisoquinolin-2(1H)-yl)propyl)-6-(piperidin-1-yl)isonicotinamide]	C* (an IC50 ratio of less than 3 fold between the IC50 in the HAP1 MTAP-intact cell line and the HAP1 MTAP-deleted cell line)	
500 to 5000 nM	1000 to 10000 nM	≥ 10000 nM	50 to 500 nM	50 to 500 nM	CC(=O)N1CCN(c2nc(NC3COC3)cc(C(=O)NC[C@H](O)CN3CCc4cc(OCc5cnco5)ccc4C3)n2)CC1 [Compound 321]	C* (an IC50 ratio of less than 3 fold between the IC50 in the HAP1 MTAP-intact cell line and the HAP1 MTAP-deleted cell line)	A (a Ki ratio greater than or equal to 10 fold between the Ki in the presence of SAM and the Ki in the presence of MTA)
≥ 5000 nM	≥ 10000 nM	≥ 10000 nM	50 to 500 nM	50 to 500 nM	O=C(NC[C@H](O)CN1CCc2c(ccc(OCc3cnco3)c2Cl)C1)c1ccnc(NC2CCC(F)C2)c1 (stereo partly shown) [Compound 322]	C* (an IC50 ratio of less than 3 fold between the IC50 in the HAP1 MTAP-intact cell line and the HAP1 MTAP-deleted cell line)	A (a Ki ratio greater than or equal to 10 fold between the Ki in the presence of SAM and the Ki in the presence of MTA)
500 to 5000 nM	1000 to 10000 nM	≥ 10000 nM	50 to 500 nM	50 to 500 nM	CC(C)C(=O)N1CCN(c2nc(NC3COC3)cc(C(=O)NC[C@H](O)CN3CCc4c(ccc(OCc5cnco5)c4Cl)C3)n2)CC1 [Compound 323, (S)—N-(3-(5-chloro-6-(oxazol-5-ylmethoxy)-3N-dihydroisoquinolin-2(1H)-yl)-2-hydroxypropyl)-2-(4-isobutyrylpiperazin-1-yl)-6-(oxetan-3-ylamino)pyrimidine-4-carboxamide]	B* (an IC50 ratio greater than or equal to 3 fold but lower than 10 fold between the IC50 in the HAP1 MTAP-intact cell line and the HAP1 MTAP-deleted cell line)	A (a Ki ratio greater than or equal to 10 fold between the Ki in the presence of SAM and the Ki in the presence of MTA)
500 to 5000 nM	1000 to 10000 nM	≥ 10000 nM	50 to 500 nM	50 to 500 nM	CCN1CCN(c2nc(NC3COC3)cc(C(=O)NC[C@H](O)CN3CCc4c(ccc(OCc5cnco5)c4Cl)C3)n2)CC1 [Compound 324]	C* (an IC50 ratio of less than 3 fold between the IC50 in the HAP1 MTAP-intact cell line and the HAP1 MTAP-deleted cell line)	A (a Ki ratio greater than or equal to 10 fold between the Ki in the presence of SAM and the Ki in the presence of MTA)
500 to 5000 nM	< 1000 nM	1000 to 10000 nM	50 to 500 nM	50 to 500 nM	O=C(NC[C@H](O)CN1CCc2cc(OCc3cnco3)ccc2C1)c1cc(NC2COC2)nc(N2CCCCC2)n1 [Compound 325, (S)—N-(2-hydroxy-3-(6-(oxazol-5-ylmethoxy)-3,4-dihydroisoquinolin-2(1H)-yl)propyl)-6-(oxetan-3-ylamino)-2-(piperidin-1-yl)pyrimidine-4-carboxamide]	C* (an IC50 ratio of less than 3 fold between the IC50 in the HAP1 MTAP-intact cell line and the HAP1 MTAP-deleted cell line)	A (a Ki ratio greater than or equal to 10 fold between the Ki in the presence of SAM and the Ki in the presence of MTA)
